Source: ChEMBL document CHEMBL1201862, “PubChem BioAssay data set” (2004)
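Values below derive from 48-hour exposures of cells grown in 96-well plates, with endpoints linearly interpolated between the two concentrations bracketing the appropriate inhibition level. Here, GI50 denotes the concentration required for 50% inhibition of growth.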 Calls of active or inactive are those of the source. Cut-off read from the data, not from the text of the source: active = GI50 up to about 1.1 µM and inactive = higher.

Experiments:
Experiment in all cases: NCI-60 cell line screen, 48 h
HCC 2998 = tested on: HCC 2998
SK-OV-3 = tested on: SK-OV-3
HOP-92 = tested on: HOP-92
NCI-H23 = tested on: NCI-H23
RXF 631 = tested on: RXF 631
OVCAR-4 = tested on: OVCAR-4
DLD-1 = tested on: DLD-1
HCT-116 = tested on: HCT-116
786-0 = tested on: 786-0
A498 = tested on: A498
CAKI-1 = tested on: CAKI-1
HT-29 = tested on: HT-29
RXF 393 = tested on: RXF 393
KM-20L2 = tested on: KM-20L2
ACHN = tested on: ACHN
M14 = tested on: M14
OVCAR-5 = tested on: OVCAR-5
SK-MEL-5 = tested on: SK-MEL-5
SK-MEL-28 = tested on: SK-MEL-28
UACC-257 = tested on: UACC-257
COLO 205 = tested on: COLO 205
SF-295 = tested on: SF-295
SNB-75 = tested on: SNB-75
M19-MEL = tested on: M19-MEL
SNB-19 = tested on: SNB-19
LOX IMVI = tested on: LOX IMVI
SF-539 = tested on: SF-539
IGROV-1 = tested on: IGROV-1
Malme-3M = tested on: Malme-3M
RPMI-8226 = tested on: RPMI-8226
K562 = tested on: K562
HOP-62 = tested on: HOP-62
OVCAR-8 = tested on: OVCAR-8
UO-31 = tested on: UO-31
TK-10 = tested on: TK-10
OVCAR-3 = tested on: OVCAR-3
SN12C = tested on: SN12C
SW-620 = tested on: SW-620
HL-60 = tested on: HL-60
HCT-15 = tested on: HCT-15
MOLT-4 = tested on: MOLT-4
EKVX = tested on: EKVX
NCI-H460 = tested on: NCI-H460
NCI-H522 = tested on: NCI-H522
DMS-114 = tested on: DMS-114
NCI-H226 = tested on: NCI-H226
SK-MEL-2 = tested on: SK-MEL-2
A549 = tested on: A549
DMS-273 = tested on: DMS-273
SF-268 = tested on: SF-268
LXFL 529 = tested on: LXFL 529
XF498 = tested on: XF498
SNB-78 = tested on: SNB-78
UACC-62 = tested on: UACC-62
CCRF-CEM = tested on: CCRF-CEM

O=C(c1ccccc1)C(c1ccccc1)C1(O)C(=O)Nc2ccccc21 (stereo not given)
GI50 (HCC 2998): > 100 µM (inactive) | GI50 (SK-OV-3): > 100 µM (inactive) | GI50 (HOP-92): > 100 µM (inactive) | GI50 (NCI-H23): > 100 µM (inactive) | GI50 (RXF 631): > 100 µM (inactive) | GI50 (OVCAR-4): > 100 µM (inactive) | GI50 (DLD-1): > 100 µM (inactive) | GI50 (HCT-116): > 100 µM (inactive) | GI50 (786-0): > 100 µM (inactive) | GI50 (A498): > 100 µM (inactive) | GI50 (CAKI-1): > 100 µM (inactive) | GI50 (HT-29): > 100 µM (inactive) | GI50 (RXF 393): > 100 µM (inactive) | GI50 (KM-20L2): > 100 µM (inactive) | GI50 (ACHN): > 100 µM (inactive) | GI50 (M14): > 100 µM (inactive) | GI50 (OVCAR-5): > 100 µM (inactive) | GI50 (SK-MEL-5): > 100 µM (inactive) | GI50 (SK-MEL-28): > 100 µM (inactive) | GI50 (UACC-257): > 100 µM (inactive) | GI50 (COLO 205): > 100 µM (inactive) | GI50 (SF-295): > 100 µM (inactive) | GI50 (SNB-75): 43.6 µM (inactive) | GI50 (M19-MEL): > 100 µM (inactive) | GI50 (SNB-19): > 100 µM (inactive) | GI50 (LOX IMVI): > 100 µM (inactive) | GI50 (SF-539): > 100 µM (inactive) | GI50 (IGROV-1): > 100 µM (inactive) | GI50 (Malme-3M): > 100 µM (inactive) | GI50 (RPMI-8226): > 100 µM (inactive) | GI50 (K562): > 100 µM (inactive) | GI50 (HOP-62): > 100 µM (inactive) | GI50 (OVCAR-8): > 100 µM (inactive) | GI50 (UO-31): 44.4 µM (inactive) | GI50 (TK-10): > 100 µM (inactive) | GI50 (OVCAR-3): > 100 µM (inactive) | GI50 (SN12C): > 100 µM (inactive) | GI50 (SW-620): > 100 µM (inactive) | GI50 (HL-60): > 100 µM (inactive) | GI50 (HCT-15): > 100 µM | GI50 (MOLT-4): > 100 µM (inactive) | GI50 (EKVX): > 100 µM (inactive) | GI50 (NCI-H460): > 100 µM (inactive) | GI50 (NCI-H522): > 100 µM (inactive) | GI50 (DMS-114): > 100 µM (inactive) | GI50 (NCI-H226): > 100 µM (inactive) | GI50 (SK-MEL-2): > 100 µM (inactive) | GI50 (A549): > 100 µM (inactive) | GI50 (DMS-273): > 100 µM (inactive) | GI50 (SF-268): > 100 µM (inactive) | GI50 (LXFL 529): > 100 µM (inactive) | GI50 (XF498): > 100 µM (inactive) | GI50 (SNB-78): > 100 µM (inactive) | GI50 (UACC-62): > 100 µM (inactive) | GI50 (CCRF-CEM): > 100 µM (inactive)
